# Measured values taken from patent publication US10112935B2, “Indazolyl thiadiazolamines and related compounds for inhibition of Rho-associated protein kinase and the treatment of disease” (Lycera Corporation, priority 2015, dated 2018).
# Legend:
# [1] = target: GST-tagged human ROCK1 catalytic domain 1-477 (Homo sapiens (Human), UniProt Q13464); assay: Inhibition of Rho-associated protein kinase isoform 1 (LANCE Ultra ULight-CREBtide FRET kinase assay); assay type: biochemical; conditions: 30 μM was the highest concentration analyzed
# GST-tagged human ROCK1 catalytic domain 1-477, sequence (Q13464 1-477): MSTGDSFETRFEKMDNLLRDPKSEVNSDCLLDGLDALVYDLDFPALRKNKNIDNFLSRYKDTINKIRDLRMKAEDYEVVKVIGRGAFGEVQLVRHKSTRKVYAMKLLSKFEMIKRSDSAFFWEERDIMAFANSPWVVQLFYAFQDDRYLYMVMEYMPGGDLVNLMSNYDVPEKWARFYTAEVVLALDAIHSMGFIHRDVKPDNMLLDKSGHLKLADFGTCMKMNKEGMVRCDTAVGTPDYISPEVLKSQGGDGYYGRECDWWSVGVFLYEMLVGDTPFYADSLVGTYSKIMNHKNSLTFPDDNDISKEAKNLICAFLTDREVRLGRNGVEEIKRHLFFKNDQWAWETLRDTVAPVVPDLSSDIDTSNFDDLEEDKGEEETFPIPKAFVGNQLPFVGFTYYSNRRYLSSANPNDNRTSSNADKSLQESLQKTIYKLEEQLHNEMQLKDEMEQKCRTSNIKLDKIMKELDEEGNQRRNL
# How it was run: (§1)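 Baculovirus-expressed kinase phosphorylated ULight-CREBtide for 90 min at room temperature before the reaction was stopped with 10 mM EDTA. Phospho-substrate was detected by TR-FRET with 1 nM Europium-anti-phospho-CREB (Ser133) antibody after 60 min at room temperature.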
# [2] = target: GST-tagged human ROCK2 catalytic domain 1-553 (Homo sapiens (Human), UniProt O75116); assay: Inhibition of Rho-associated protein kinase isoform 2 (LANCE Ultra ULight-CREBtide FRET kinase assay); assay type: biochemical; conditions: for IC50: 30 μM was the highest concentration analyzed; for Selectivity for ROCK2 over ROCK1 (IC50 ROCK1 / IC50 ROCK2): selectivity ROCK2 vs ROCK1
# GST-tagged human ROCK2 catalytic domain 1-553, sequence (O75116 1-553): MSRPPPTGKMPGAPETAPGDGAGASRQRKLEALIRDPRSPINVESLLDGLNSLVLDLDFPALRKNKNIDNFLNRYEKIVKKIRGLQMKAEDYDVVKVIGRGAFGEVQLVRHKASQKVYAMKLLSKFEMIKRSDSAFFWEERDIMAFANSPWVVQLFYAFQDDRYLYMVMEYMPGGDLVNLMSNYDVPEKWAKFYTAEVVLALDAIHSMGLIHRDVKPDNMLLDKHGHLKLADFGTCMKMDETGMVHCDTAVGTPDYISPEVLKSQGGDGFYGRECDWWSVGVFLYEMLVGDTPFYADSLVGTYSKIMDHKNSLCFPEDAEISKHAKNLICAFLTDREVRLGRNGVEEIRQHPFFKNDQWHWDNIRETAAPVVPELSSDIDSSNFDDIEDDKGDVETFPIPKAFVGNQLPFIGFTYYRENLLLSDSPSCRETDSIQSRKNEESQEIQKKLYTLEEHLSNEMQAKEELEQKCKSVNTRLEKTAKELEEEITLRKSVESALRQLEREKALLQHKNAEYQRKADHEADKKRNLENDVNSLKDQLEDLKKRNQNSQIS
# How it was run: as §1
IC50 [1] [µM],IC50 [2] [µM],Selectivity for ROCK2 over ROCK1 (IC50 ROCK1 / IC50 ROCK2) [2],SMILES
< 1,< 1,>5,Cc1coc(-c2cccc(-c3nnc(Nc4ccc5[nH]ncc5c4Cl)s3)c2)n1 [Example 46C]
> 30,< 1,>100,O=C(Cc1ncc[nH]1)Nc1cccc(-c2nnc(Nc3ccc4[nH]ncc4c3Cl)s2)c1 [Example 35BD]
> 30,1 to 15,>5,CCS(=O)(=O)Nc1cccc(-c2nnc(Nc3ccc4[nH]ncc4c3)s2)c1 [Example A-8]
< 1,< 1,<5,CC(=O)Nc1cc(-c2nnc(Nc3ccc4[nH]ncc4c3Cl)s2)ccn1.O=C(O)C(F)(F)F [Example 35AE]
1 to 15,< 1,>5,CC1(C)CN=C(c2cccc(-c3nnc(Nc4ccc5[nH]ncc5c4Cl)s3)c2)O1 [Example 75Q]
> 30,< 1,>100,O=C(Nc1cccc(-c2nnc(Nc3ccc4[nH]ncc4c3)s2)c1)c1cnn(CCO)c1 [Example A-20]
> 30,< 1,>100,Brc1ccc(-c2cn3cccc(-c4nnc(Nc5ccc6[nH]ncc6c5)s4)c3n2)cc1 [Example 52G]
< 1,< 1,>5,NCCn1cc(C(=O)Nc2cccc(-c3nnc(Nc4ccc5[nH]ncc5c4)s3)c2)cn1 [Example 35CE]
1 to 15,< 1,>5,NC(Cc1ccc(Cl)cc1)C(=O)Nc1cccc(-c2nnc(Nc3ccc4[nH]ncc4c3Cl)s2)c1 (stereo not drawn) [Example 35BF]
1 to 15,1 to 15,<5,O=C(NCC(O)CO)c1cccc(-c2nnc(Nc3ccc4[nH]ncc4c3)s2)c1 (stereo not drawn) [Example A-4]
> 30,< 1,>100,Clc1c(Nc2nnc(-c3cncc(-c4ncco4)c3)s2)ccc2[nH]ncc12 [Example 46P]
1 to 15,< 1,>5,CC(=O)Nc1cc(C(=O)N2CCC(C(=O)O)CC2)cc(-c2nnc(Nc3ccc4[nH]ncc4c3Cl)s2)c1 [Example 48Q]
> 30,< 1,>100,Cn1ccnc1CC(=O)Nc1cccc(-c2nnc(Nc3ccc4[nH]ncc4c3Cl)s2)c1 [Example 35BL]
> 30,> 30,–,Clc1c(Nc2nnc(-c3cccc4c3OCCO4)s2)ccc2[nH]ncc12 [Example 75E]
< 1,< 1,>5,O=C(Nc1cc(-c2nnc(Nc3ccc4[nH]ncc4c3Cl)s2)ccc1C(F)(F)F)c1cnn(CCO)c1 [Example 48M]
> 30,1 to 15,>5,c1cnc(-c2nnc(Nc3ccc4[nH]ncc4c3)s2)cn1 [Example A-25]
< 1,< 1,>5,"c1cc(-c2nnc(Nc3ccc4[nH]ncc4c3)s2)c2nccn2c1 [Example 49, 5-Imidazo[1,2-a]pyridin-8-yl-N-(1H-indazol-5-yl)-1,3,4-thiadiazol-2-amine 2,2,2-trifluoroacetic Acid Solvate]"
> 30,1 to 15,>5,CC(=O)Nc1cccc(-c2nnc(Nc3ccc4[nH]ncc4c3C(C)C)s2)c1 [Example 35I]

IC50 [1] [µM],IC50 [2] [µM],Selectivity for ROCK2 over ROCK1 (IC50 ROCK1 / IC50 ROCK2) [2],SMILES
< 1,< 1,>50,O=C(Cc1ccc(F)cc1)Nc1cccc(-c2nnc(Nc3ccc4[nH]ncc4c3Cl)s2)c1 [Example 35BO]
1 to 15,< 1,>5,CCN(CC)Cc1cc(NC(C)=O)cc(-c2nnc(Nc3ccc4[nH]ncc4c3Cl)s2)c1.O=C(O)C(F)(F)F [Example 48A]
1 to 15,< 1,>5,CC(C)NCC(=O)Nc1cncc(-c2nnc(Nc3ccc4[nH]ncc4c3)s2)c1 [Example A-2]
1 to 15,1 to 15,<5,O=C(O)C(F)(F)F.O=C(O)CS(=O)(=O)Nc1cccc(-c2nnc(Nc3ccc4[nH]ncc4c3)s2)c1 [Example 35CD]
> 30,< 1,>100,Brc1cc(-c2nnc(Nc3ccc4[nH]ncc4c3)s2)c2nccn2c1 [Example 52F]
> 30,< 1,>100,Cc1coc(-c2cc(F)cc(-c3nnc(Nc4ccc5[nH]ncc5c4Cl)s3)c2)n1 [Example 46D]
> 30,< 1,>100,Cn1cc(C(=O)Nc2cccc(-c3nnc(Nc4ccc5[nH]ncc5c4)s3)c2)cn1 [Example A-41]
< 1,< 1,>5,CN1CCN(C(=O)Nc2ccc(-c3nnc(Nc4ccc5[nH]ncc5c4Cl)s3)cc2)CC1 [Example 75D]
1 to 15,< 1,>5,NCc1cncc(C(=O)Nc2cccc(-c3nnc(Nc4ccc5[nH]ncc5c4)s3)c2)c1.O=C(O)C(F)(F)F [Example 35CF]
> 30,< 1,>100,Cc1ccc(CC(=O)Nc2cccc(-c3nnc(Nc4ccc5[nH]ncc5c4Cl)s3)c2)nc1 [Example 35AO]
> 30,< 1,>75,O=C(O)Cn1cc(C(=O)Nc2cc(F)c(F)c(-c3nnc(Nc4ccc5[nH]ncc5c4)s3)c2)cn1 [Example 35AY]
> 30,< 1,>100,CCOc1ccc(CC(=O)Nc2cccc(-c3nnc(Nc4ccc5[nH]ncc5c4Cl)s3)c2)cc1 [Example 35BE]
> 30,> 30,<5,Cn1cc(C(=O)Nc2ccc(-c3nnc(Nc4ccc5[nH]ncc5c4)s3)cc2)cn1 [Example A-27]
> 30,> 30,–,CN(c1nnc(-c2cccc(NC(=O)Cc3ccc(F)cc3)c2)s1)c1ccc2[nH]ncc2c1Cl [Example 75U]
< 1,< 1,>5,CCn1cc(C(=O)Nc2cccc(-c3nnc(Nc4ccc5[nH]ncc5c4)s3)c2)cn1 [Example A-16]
> 30,< 1,>100,c1cc(-c2cn[nH]c2)cc(-c2nnc(Nc3ccc4[nH]ncc4c3)s2)c1 [Example A-17]
< 1,< 1,>5,CC(C)(C)C(=O)Nc1cccc(-c2nnc(Nc3ccc4[nH]ncc4c3Cl)s2)c1 [Example 35O]
1 to 15,1 to 15,–,O=[N+]([O-])c1cccc(-c2nnc(Nc3ccc4[nH]ncc4c3)s2)c1 [Example 75O]
